Assay [1] has as its system AR 1.0 cells. Nature of the assay: Drug accumulation assay: daunorubicin accumulation in AR 1.0 cells. Conditions: Mus musculus, 100% = accumulation with verapamil 100 μM, 1 hr, 37° C. Type of assay: cell-based. On the procedure:
The EMT6 mouse mammary carcinoma cell line and the MDR resistant subline AR 1.0 were cultured in RPMI 1640 medium containing 10% foetal calf serum and 2 mM glutamine at 37° C. in 5% CO2. Cells were passaged between 1 in 200 and 1 in 2000 in the case of the parental cell line and between 1 in 20 and 1 in 200 in the case of the MDR resistant subline, after trypsinisation (0.25% trypsin, 0.2 gl^-1, EDTA).
AR 1.0 cells were seeded 48 hours prior to assay into 96 well opaque culture plates (Canberra Packard).

Assay [2] deals with AR 1.0 cells. Put plainly: Potentiation index with doxorubicin titration. Type of assay: cell-based, mouse. As to conditions: for Potentiation Index at RMA concentration 30 nM: Table C1, RMA 30 nM; for Potentiation Index at RMA concentration 50 nM: Table C1, RMA 50 nM; for Potentiation Index at RMA concentration 100 nM: Table C1, RMA 100 nM; for Potentiation Index at RMA concentration 10 nM: Table C1, RMA 10 nM. On the procedure: The EMT6 mouse mammary carcinoma cell line and the MDR resistant subline AR 1.0 were cultured in RPMI 1640 medium containing 10% foetal calf serum and 2 mM glutamine at 37° C. in 5% CO2. Cells were passaged between 1 in 200 and 1 in 2000 in the case of the parental cell line and between 1 in 20 and 1 in 200 in the case of the MDR resistant subline, after trypsinisation (0.25% trypsin, 0.2 gl^-1, EDTA). […]
(b) Cells were cultured for four days with a titration of doxorubicin (0.263 nM-17.24 μM) in the presence of a fixed concentration of each compound. Proliferation was quantified as described by Skehen et al, loc cit. The IC50 (concentration required to reduce proliferation to 50% of the untreated controls) for doxorubicin alone and with each compound were derived and used to calculate the potentiation index (PI): [formula]

The IC50 is the concentration needed to halve the response being measured.

`COc1ccc(CN(C)Cc2ccc(NC(=O)c3ccccc3NC(=O)c3cnc4ccccc4c3)cc2)cc1OC(C)C` [compound 9652, Quinoline-3-carboxylic acid [2-(4-{[(3-isopropoxy-4-methoxy-benzyl)-methyl-amino]-methyl}-phenylcarbamoyl)-phenyl]-amide] showed an IC50 in assay [1] of 64 nM. Also, in assay [2], the “Potentiation Index at RMA concentration 30 nM” value worked out at 1.2, the “Potentiation Index at RMA concentration 50 nM” value turned out to be 1.8 and the “Potentiation Index at RMA concentration 100 nM” value is reported as 7.6.

Molecule `COc1cc2c(cc1OC)CN(CCc1ccc(NC(=O)c3cccnc3NC(=O)c3cnc4ccccc4n3)cc1)CC2` [compound 9600, Quinoxaline-2-carboxylic acid (3-{4-[2-(6,7-dimethoxy-3,4-dihydro-1H-isoquinolin-2-yl)-ethyl]-phenylcarbamoyl}-pyridin-2-yl)-amide] came in with a concentration for half-maximal inhibition (IC50) in assay [1] of 199 nM. Further, in assay [2], the “Potentiation Index at RMA concentration 50 nM” value came out at 1.98 and the “Potentiation Index at RMA concentration 100 nM” value came to 2.55.

In turn, `COc1cc2c(cc1OC)CN(CCc1ccc(NC(=O)c3ccccc3NC(=O)c3csc(C)n3)cc1)CC2` [compound 9635, 2-Methyl-thiazole-4-carboxylic acid (2-{4-[2-(6,7-dimethoxy-3,4-dihydro-1H-isoquinolin-2-yl)-ethyl]-phenylcarbamoyl}-phenyl)-amide] showed an IC50 in assay [1] of 669 nM. Moreover, in assay [2], the “Potentiation Index at RMA concentration 30 nM” value stood at 1.3, the “Potentiation Index at RMA concentration 50 nM” value worked out at 2 and the “Potentiation Index at RMA concentration 100 nM” value stood at 7.

`CCOc1cc2c(cc1OCC)CN(CCc1ccc(NC(=O)c3ccccc3NC(=O)c3cnc4ccccc4c3)cc1)CC2` [compound 9665, Quinoline-3-carboxylic acid (2-{4-[2-(6,7-diethoxy-3,4-dihydro-1H-isoquinolin-2-yl)-ethyl]-phenylcarbamoyl}-phenyl)-amide] gave an IC50 in assay [1] of 389 nM. In addition, in assay [2], the “Potentiation Index at RMA concentration 10 nM” value was found to be 1.4, the “Potentiation Index at RMA concentration 30 nM” value is listed as 7, the “Potentiation Index at RMA concentration 50 nM” value is given as 28 and the “Potentiation Index at RMA concentration 100 nM” value was found to be 50.

Consider `COc1cc(CN(C)CCc2ccc(NC(=O)c3ccccc3NC(=O)c3cnc4ccccc4c3)cc2)ccc1OC(C)C` [compound 9646, Quinoline-3-carboxylic acid [2-(4-{2-[(4-isopropoxy-3-methoxy-benzyl)-methyl-amino]-ethyl}-phenylcarbamoyl)-phenyl]-amide], for which, in assay [1], the IC50 amounted to 295 nM. Moreover, in assay [2], the “Potentiation Index at RMA concentration 10 nM” value was 1.0, the “Potentiation Index at RMA concentration 30 nM” value is 1.1, the “Potentiation Index at RMA concentration 50 nM” value is listed as 1.3 and the “Potentiation Index at RMA concentration 100 nM” value was 4.8.

`CCCCOc1ccc(CN(C)CCc2ccc(NC(=O)c3ccccc3NC(=O)c3cnc4ccccc4c3)cc2)cc1OC` [compound 9642, Quinoline-3-carboxylic acid [2-(4-{2-[(4-butoxy-3-methoxy-benzyl)-methyl-amino]-ethyl}-phenylcarbamoyl)-phenyl]-amide]: the IC50 in assay [1] was 341 nM. For the same molecule, in assay [2], the “Potentiation Index at RMA concentration 10 nM” value is given as 1.0, the “Potentiation Index at RMA concentration 30 nM” value worked out at 1.2, the “Potentiation Index at RMA concentration 50 nM” value was 2.5 and the “Potentiation Index at RMA concentration 100 nM” value is recorded as 14.

In the case of `COc1cc2c(cc1OC)CN(CCSc1ccc(NC(=O)c3ccccc3NC(=O)c3cnc4ccccc4c3)cc1)CC2` [compound 9621, Quinoline-3-carboxylic acid (2-{4-[2-(6,7-dimethoxy-3 ,4-dihydro-1H-isoquinolin-2-yl)-ethylsulfanyl]-phenylcarbamoyl}-phenyl)-amide], in assay [1], the IC50 amounted to 453 nM. In addition, in assay [2], the “Potentiation Index at RMA concentration 10 nM” value came out at 1.0, the “Potentiation Index at RMA concentration 30 nM” value stood at 1.6, the “Potentiation Index at RMA concentration 50 nM” value was 4.4 and the “Potentiation Index at RMA concentration 100 nM” value is listed as 25. In assay [2] (Table C1, RMA 20 nM), the “Potentiation Index at RMA concentration 20 nM” value came out at 1.3.

The molecule `O=C(Nc1ccccc1C(=O)Nc1ccc(CCN2Cc3ccccc3C2)cc1)c1cnc2ccccc2c1` [compound 9626, Quinoline-3-carboxylic acid (2-{4-[2-(1,3-dihydro-isoindol-2-yl)-ethyl]-phenylcarbamoyl}-phenyl)-amide] came in with an IC50 in assay [1] of 278 nM. Also, in assay [2], the “Potentiation Index at RMA concentration 10 nM” value is 1.2, the “Potentiation Index at RMA concentration 30 nM” value is 4, the “Potentiation Index at RMA concentration 50 nM” value was determined as 8 and the “Potentiation Index at RMA concentration 100 nM” value is recorded as 27.

The molecule `COc1ccc(CN(C)CCc2ccc(NC(=O)c3ccccc3NC(=O)c3cnc4ccccc4c3)cc2)cc1O` [compound 9647, Quinoline-3-carboxylic acid [2-(4-{2-[(3-hydroxy-4-methoxy-benzyl)-methyl-amino]-ethyl}-phenylcarbamoyl)-phenyl]-amide] registered an IC50 in assay [1] of 33 nM. In addition, in assay [2], the “Potentiation Index at RMA concentration 50 nM” value is recorded as 1 and the “Potentiation Index at RMA concentration 100 nM” value was 6.

As to `CN(CCc1ccc(NC(=O)c2ccccc2NC(=O)c2cnc3ccccc3c2)cc1)Cc1ccc(F)c(F)c1` [compound 9643, Quinoline-3-carboxylic acid [2-(4-{2-[(3,4-difluoro-benzyl)-methyl-amino]-ethyl}-phenylcarbamoyl)-phenyl]-amide], the IC50 in assay [1] was found to be 425 nM. Besides, in assay [2], the “Potentiation Index at RMA concentration 10 nM” value came out at 1.0, the “Potentiation Index at RMA concentration 30 nM” value was 1.5, the “Potentiation Index at RMA concentration 50 nM” value turned out to be 2.4 and the “Potentiation Index at RMA concentration 100 nM” value is 6.7.

In turn, `COc1cc2c(cc1OC)CN(CC(O)COc1ccc(NC(=O)c3ccccc3NC(=O)c3cnc4ccccc4c3)cc1)CC2` (stereo not drawn) [compound 9648, Quinoline-3-carboxylic acid (2-{4-[3-(6,7-dimethoxy-3,4-dihydro-1H-isoquinolin-2-yl)-2-hydroxy-propoxy]-phenylcarbamoyl}-phenyl)-amide] had an IC50 in assay [1] of 38 nM. In assay [2], the “Potentiation Index at RMA concentration 10 nM” value is reported as 16 and the “Potentiation Index at RMA concentration 30 nM” value came to 34.

Consider `COc1cc2c(cc1OC)CN(CCOc1ccc(NC(=O)c3ccccc3NC(=O)c3cnc4ccccc4c3)cc1)CC2` [compound 9623, Quinoline-3-carboxylic acid (2-{4-[2-(6,7-dimethoxy-3,4-dihydro-1H-isoquinolin-2-yl)-ethoxy]-phenylcarbamoyl}-phenyl)-amide], for which, in assay [1], the IC50 was determined as 1890 nM.

With `COc1cc2c(cc1OC)CN(CCNC(=O)c1ccccc1NC(=O)c1ccc3c(c1)OCO3)CC2` [compound 9302, Benzo[1,3]dioxole-5-carboxylic acid {2-[2-(6,7-dimethoxy-3,4-dihydro-1H-isoquinolin-2-yl)-ethylcarbamoyl]-phenyl}-amide], the IC50 in assay [1] turned out to be 5000 nM.

With `COc1cc2c(cc1OC)CN(CCc1ccc(NC(=O)c3c(C)cccc3NC(=O)c3ccccc3)cc1)CC2` [compound 9512, 2-Benzoylamino-N-{4-[2-(617-dimethoxy-3,4-dihydro-1H-isoquinolin-2-yl)-ethyl]-phenyl}-6-methyl-benzamide], the half-maximal inhibitory concentration (IC50) in assay [1] was found to be 3900 nM. This IC50 and that of the molecule before are within 1.5-fold of each other.

In the case of `COc1ccc(CN(CCc2ccc(NC(=O)c3ccccc3NC(=O)c3cnc4ccccc4c3)cc2)C(C)C)cc1OC` [compound 9669, Quinoline-3-carboxylic acid [2-(4-{2-[(3,4-dimethoxy-benzyl)-isopropyl-amino]-ethyl}-phenylcarbamoyl)-phenyl]-amide], in assay [1], the concentration for half-maximal inhibition (IC50) worked out at 469 nM.

On to `COc1cc(CCN2CCc3cc(OC)c(OC)cc3C2)ccc1NC(=O)c1ccccc1NC(=O)c1cnccn1` [compound 9659, Pyrazine-2-carboxylic acid (2-{4-[2-(6,7-dimethoxy-3,4-dihydro-1H-isoquinolin-2-yl)-ethyl]-2-methoxy-phenylcarbamoyl}-phenyl)-amide], for which inhibition in assay [1] was half-maximal at 1380 nM (IC50).

`COc1cc2c(cc1OC)CN(CCc1ccc(NC(=O)c3sc4nccnc4c3NC(=O)c3cnc4ccccc4c3)cc1)CC2` [compound 9666, Quinoline-3-carboxylic acid (6-{4-[2-(6,7-dimethoxy-3,4-dihydro-1H-isoquinolin-2-yl)-ethyl]-phenylcarbamoyl}-thieno[2,3-b]pyrazin-7-yl)-amide]: the half-inhibitory concentration (IC50) in assay [1] turned out to be 8670 nM.

In assay [1], `COc1cc2c(cc1OC)CN(CCNC(=O)c1cc3ccccc3cc1NC(=O)c1ccc(C(C)C)cc1)CC2` [compound 9410, 3-(4-Isopropyl-benzoylamino)-naphthalene-2-carboxylic acid [2-(6,7-dimethoxy-3,4-dihydro-1H-isoquinolin-2-yl)-ethyl]-amide] came in with an IC50 of 3000 nM.

On to `COc1cc2c(cc1OC)CN(CCc1ccc(NC(=O)c3ccccc3NC(=O)c3cnc4cc(C(F)(F)F)ccc4c3O)cc1)CC2` [compound 9592, 4-Hydroxy-7-trifluoromethyl-quinoline-3-carboxylic acid (2-{4-[2-(6,7-dimethoxy-3,4-dihydro-1H-isoquinolin-2-yl)-ethyl]-phenylcarbamoyl}-phenyl)-amide], for which the IC50 in assay [1] is over 10000 nM.

Turning to `O=C(Nc1ccccc1C(=O)Nc1ccc(CCN2CCc3ccc([N+](=O)[O-])cc3C2)cc1)c1cnc2ccccc2c1` [compound 9634, Quinoline-3-carboxylic acid (2-{4-[2-(7-nitro-3,4-dihydro-1H-isoquinolin-2-yl)-ethyl]-phenylcarbamoyl}-phenyl)-amide], the IC50 in assay [1] stood at 6960 nM.

These data come from patent publication US6218393A, “Anthranilic acid derivatives as multi drug resistance modulators” (priority 1997, dated 2001).
